From patent publication US10029992B2, “Diaminotriazine compounds and their use as herbicides” (BASF SE, priority 2014, dated 2018)

Columns and labels:
[1] = test system: ABUTH; experiment: Greenhouse experiment, post-emergence treatment; assay type: in vivo, Abutilon theophrasti; details: post-emergence method, application rate 125 g/ha
Description: (§1) The seeds of the test plants were sown separately for each species. […] For this purpose, the test plants were either sown directly and grown in the same containers, or they were first grown separately as seedlings and transplanted into the test containers a few days prior to treatment. Depending on the species, the plants were kept at 10-25° C. or 20-35° C., respectively. The test period extended over 2 to 4 weeks. During this time, the plants were tended, and their response to the individual treatments was evaluated. Evaluation was carried out using a scale from 0 to 100. 100 means no emergence of the plants, or complete destruction of at least the aerial moieties, and 0 means no damage, or normal course of growth. A moderate herbicidal activity is given at values of at least 60, a good herbicidal activity is given at values of at least 70, and a very good herbicidal activity is given at values of at least 85. […] [table]

[2] = test system: AMARE; experiment: Greenhouse experiment, post-emergence treatment; assay type: in vivo, Amaranthus retroflexus; details: post-emergence method, application rate 125 g/ha
Description: as §1

[3] = test system: SETFA; experiment: Greenhouse experiment, post-emergence treatment; assay type: in vivo, Setaria faberi; details: post-emergence method, application rate 125 g/ha
Description: as §1

[4] = test system: ABUTH; experiment: Greenhouse experiment, pre-emergence treatment; assay type: in vivo, Abutilon theophrasti; details: pre-emergence method
From the text: (§2) The culture containers used were plastic flowerpots containing loamy sand with approximately 3.0% of humus as the substrate. The seeds of the test plants were sown separately for each species.
(§3) For the pre-emergence treatment, the active ingredients, which had been suspended or emulsified in water, were applied directly after sowing by means of finely distributing nozzles. The containers were irrigated gently to promote germination and growth and subsequently covered with transparent plastic hoods until the plants had rooted. This cover caused uniform germination of the test plants, unless this had been impaired by the active ingredients.
(§4) Depending on the species, the plants were kept at 10-25° C. or 20-35° C., respectively.
(§5) The test period extended over 2 to 4 weeks. During this time, the plants were tended, and their response to the individual treatments was evaluated.
(§6) Evaluation was carried out using a scale from 0 to 100. 100 means no emergence of the plants, or complete destruction of at least the aerial moieties, and 0 means no damage, or normal course of growth. A moderate herbicidal activity is given at values of at least 60, a good herbicidal activity is given at values of at least 70, and a very good herbicidal activity is given at values of at least 85.
(§7) The plants used in the greenhouse experiments were of the following species: […]

[5] = test system: AMARE; experiment: Greenhouse experiment, pre-emergence treatment; assay type: in vivo, Amaranthus retroflexus; details: pre-emergence method; for herbicidal activity against AMARA: application rate 125 g/ha
From the text: (§8) The seeds of the test plants were sown separately for each species. For the pre-emergence treatment, the active ingredients, which had been suspended or emulsified in water, were applied directly after sowing by means of finely distributing nozzles. The containers were irrigated gently to promote germination and growth and subsequently covered with transparent plastic hoods until the plants had rooted. This cover caused uniform germination of the test plants, unless this had been impaired by the active ingredients. Depending on the species, the plants were kept at 10-25° C. or 20-35° C., respectively. The test period extended over 2 to 4 weeks. During this time, the plants were tended, and their response to the individual treatments was evaluated. Evaluation was carried out using a scale from 0 to 100. 100 means no emergence of the plants, or complete destruction of at least the aerial moieties, and 0 means no damage, or normal course of growth. A moderate herbicidal activity is given at values of at least 60, a good herbicidal activity is given at values of at least 70, and a very good herbicidal activity is given at values of at least 85. […] [table]

[6] = test system: SETFA; experiment: Greenhouse experiment, pre-emergence treatment; assay type: in vivo, Setaria faberi; details: pre-emergence method
From the text: as §8

[7] = test system: ALOMY; experiment: Greenhouse experiment, pre-emergence treatment; assay type: in vivo, Alopecurus myosuroides; details: pre-emergence method
From the text: as §2, §3, §4, §5, §6, §7

[8] = test system: ECHCG; experiment: Greenhouse experiment, pre-emergence treatment; assay type: in vivo, Echinochloa crus-galli; details: pre-emergence method
From the text: as §2, §3, §4, §5, §6, §7

[9] = test system: APESV; experiment: Greenhouse experiment, pre-emergence treatment; assay type: in vivo, Apera spica-venti; details: pre-emergence method
From the text: as §2, §3, §4, §5, §6, §7

| Structure (SMILES) | herbicidal activity against ABUTH [1] | herbicidal activity against AMARE [2] | herbicidal activity against SETFA [3] | further results |
| --- | --- | --- | --- | --- |
| COc1cc(Br)cc(Oc2cccc(F)c2Nc2nc(N)nc(C(C)(C)F)n2)c1 [Example 61] | very good (a very good herbicidal activity is given at values of at least 85) | very good (a very good herbicidal activity is given at values of at least 85) | very good (a very good herbicidal activity is given at values of at least 85) | – |
| CC(C)(F)c1nc(N)nc(Nc2c(F)cccc2Oc2cc(F)cc(OC(F)F)c2)n1 [Example 82] | – | – | – | herbicidal activity against ABUTH ([4]; application rate 125 g/ha): very good (a very good herbicidal activity is given at values of at least 85); herbicidal activity against AMARA [5]: very good (a very good herbicidal activity is given at values of at least 85); herbicidal activity against SETFA ([6]; application rate 125 g/ha): very good (a very good herbicidal activity is given at values of at least 85) |
| CC(C)Oc1cc(F)cc(Oc2cccc(F)c2Nc2nc(N)nc(C(C)(C)F)n2)c1 [Example 99] | – | – | – | herbicidal activity against ALOMY ([7]; application rate 500 g/ha): very good (a very good herbicidal activity is given at values of at least 85); herbicidal activity against AMARE ([5]; application rate 500 g/ha): very good (a very good herbicidal activity is given at values of at least 85); herbicidal activity against ECHCG ([8]; application rate 500 g/ha): very good (a very good herbicidal activity is given at values of at least 85) |
| Cc1cc(C)cc(Oc2cccc(F)c2Nc2nc(N)nc(C(C)(C)C)n2)c1 [Example 16] | – | – | – | herbicidal activity against ABUTH ([4]; application rate 2000 g/ha): very good (a very good herbicidal activity is given at values of at least 85); herbicidal activity against AMARE ([5]; application rate 2000 g/ha): very good (a very good herbicidal activity is given at values of at least 85); herbicidal activity against APESV ([9]; application rate 2000 g/ha): very good (a very good herbicidal activity is given at values of at least 85) |
| CC(C)(F)c1nc(N)nc(Nc2c(F)cccc2Oc2cc(F)cc(I)c2)n1 [Example 101] | – | – | – | herbicidal activity against ALOMY ([7]; application rate 250 g/ha): good (a good herbicidal activity is given at values of at least 70); herbicidal activity against ECHCG ([8]; application rate 250 g/ha): very good (a very good herbicidal activity is given at values of at least 85); herbicidal activity against SEFTA ([6]; application rate 250 g/ha): very good (a very good herbicidal activity is given at values of at least 85) |
| COc1cc(Cl)cc(Oc2cccc(F)c2Nc2nc(N)nc(C(C)(C)F)n2)c1 [Example 57] | very good (a very good herbicidal activity is given at values of at least 85) | very good (a very good herbicidal activity is given at values of at least 85) | very good (a very good herbicidal activity is given at values of at least 85) | – |
| CC(C)(F)c1nc(N)nc(Nc2c(F)cccc2Oc2cc(F)cc(Br)c2)n1 [Example 56] | good (a good herbicidal activity is given at values of at least 70) | very good (a very good herbicidal activity is given at values of at least 85) | very good (a very good herbicidal activity is given at values of at least 85) | – |
| CC(C)(F)c1nc(N)nc(Nc2c(F)cccc2Oc2cc(F)cc(Cl)c2)n1 [Example 54] | very good (a very good herbicidal activity is given at values of at least 85) | very good (a very good herbicidal activity is given at values of at least 85) | very good (a very good herbicidal activity is given at values of at least 85) | – |
| COC(C)(C)c1nc(N)nc(Nc2c(F)cccc2Oc2cc(C)cc(C)c2)n1 [Example 36] | – | – | – | herbicidal activity against ALOMY ([7]; application rate 0.25 kg/ha): good (a good herbicidal activity is given at values of at least 70); herbicidal activity against APESV ([9]; application rate 0.25 kg/ha): very good (a very good herbicidal activity is given at values of at least 85); herbicidal activity against APESV ([9]; application rate 1000 g/ha): very good (a very good herbicidal activity is given at values of at least 85); herbicidal activity against ECHCG ([8]; application rate 1000 g/ha): very good (a very good herbicidal activity is given at values of at least 85); herbicidal activity against SEFTA ([6]; application rate 1000 g/ha): very good (a very good herbicidal activity is given at values of at least 85) |
| CC(C)(F)c1nc(N)nc(Nc2c(F)cccc2Oc2cc(Cl)cc(Br)c2)n1 [Example 58] | very good (a very good herbicidal activity is given at values of at least 85) | very good (a very good herbicidal activity is given at values of at least 85) | very good (a very good herbicidal activity is given at values of at least 85) | – |
| COc1cc(F)cc(Oc2cccc(F)c2Nc2nc(N)nc(C(C)(C)F)n2)c1 [Example 62] | very good (a very good herbicidal activity is given at values of at least 85) | very good (a very good herbicidal activity is given at values of at least 85) | very good (a very good herbicidal activity is given at values of at least 85) | – |
| CC(C)(F)c1nc(N)nc(Nc2c(F)cccc2Oc2cc(Br)cc(Br)c2)n1 [Example 55] | very good (a very good herbicidal activity is given at values of at least 85) | very good (a very good herbicidal activity is given at values of at least 85) | very good (a very good herbicidal activity is given at values of at least 85) | – |
| Cc1cc(OCC(F)(F)F)cc(Oc2cccc(F)c2Nc2nc(N)nc(C(C)(C)F)n2)c1 [Example 81] | – | – | – | herbicidal activity against ABUTH ([4]; application rate 125 g/ha): good (a good herbicidal activity is given at values of at least 70); herbicidal activity against AMARA [5]: very good (a very good herbicidal activity is given at values of at least 85); herbicidal activity against SETFA ([6]; application rate 125 g/ha): very good (a very good herbicidal activity is given at values of at least 85) |
| Cc1cc(C)cc(Oc2cc(F)c(F)c(Nc3nc(N)nc(C(C)(C)F)n3)c2F)c1 [Example 43] | – | – | – | herbicidal activity against ABUTH ([4]; application rate 0.5 kg/ha): good to very good; herbicidal activity against AMARE ([5]; application rate 0.5 kg/ha): good to very good; herbicidal activity against SETFA ([6]; application rate 0.5 kg/ha): good to very good |
| CC(C)(F)c1nc(N)nc(Nc2c(F)cccc2Oc2cc(F)cc(C#N)c2)n1 [Example 59] | very good (a very good herbicidal activity is given at values of at least 85) | very good (a very good herbicidal activity is given at values of at least 85) | very good (a very good herbicidal activity is given at values of at least 85) | – |
| CC(C)(F)c1nc(N)nc(Nc2c(F)cccc2Oc2cc(F)cc(C(F)(F)F)c2)n1 [Example 53] | very good (a very good herbicidal activity is given at values of at least 85) | very good (a very good herbicidal activity is given at values of at least 85) | very good (a very good herbicidal activity is given at values of at least 85) | – |
| CC(C)(F)c1nc(N)nc(Nc2c(F)cccc2Oc2cc(Br)cc(OC(F)(F)F)c2)n1 [Example 60] | very good (a very good herbicidal activity is given at values of at least 85) | very good (a very good herbicidal activity is given at values of at least 85) | very good (a very good herbicidal activity is given at values of at least 85) | – |
